This is an account of results in patent publication US12544395B2, “Combination compositions comprising a beta-lactamase inhibitor and uses thereof” (priority 2018, dated 2026).

Each structure is given as a SMILES string. In brackets after ≈: the same amount, converted by molar mass. Bounds are passed on as bounds.

Data set [1] has as its system OXA-48-expressing Enterobacteriaceae (n = 39). In words: Broth microdilution MIC, ceftibuten/Compound 2 vs IV comparators. In general terms: In broth dilution the organism is exposed to a series of concentrations in liquid medium.
Data set [2] deals with KPC-expressing Enterobacteriaceae (n = 77). In words: organism not typed. Format: cell-based.
For another data set, the target named is T1, VIM-2 (Escherichia coli, UniProt Q5U7L7).
T1 construct: expressed as native untagged proteins; made in house; host or cells: E. coli BL21(DE3)
In words: Beta-lactamase enzyme inhibition (IC50). Format: biochemical. As for the experimental part: For VIM-2 metallo beta-lactamase, the procedure was identical with the following exceptions, first the protein was not pH adjusted to pH 5 with 50 mM sodium acetate, second, the chromatography step was changed to a 5 ml Q sepharose anion exchange column pre-equilibrated with 50 mM Hepes pH 7.5, and elution of the protein was achieved by a linear gradient of NaCl (0-600 mM). Finally, the VIM-2 purification required a second run (3rd step) on the Q sepharose anion exchange column to achieve acceptable purity (>90%).

The nature of data set [3]: Single ascending dose pharmacokinetics, Solutol HS-15:Water (20:80). Format: in vivo, Sprague-Dawley rats. The following applies: male, Sprague-Dawley, rat, plasma, iv, 10 mg/kg. As for the experimental part:
(§1) This study included dose concentrations ranging from 2-120 mg/mL.

A short description of data set [4]: Metabolic stability in plasma. Format: in vitro ADME. The settings on record: plasma; Human; test conc. 3 μM.
The nature of data set [5]: Metabolic stability in liver S9. It counts as in vitro ADME, CD-1 mouse. The following applies: CD-1, liver S9; Mouse; test conc. 3 μM.
The target of another data set is T2, NDM-1 (Klebsiella pneumoniae, UniProt C7C422).
T2 construct: expressed as native untagged proteins; made in house; host or cells: E. coli BL21(DE3)
Put plainly: Beta-lactamase enzyme inhibition (IC50). Format: biochemical.

A further data set addresses T3, KPC-2 (Klebsiella pneumoniae, UniProt Q9F663).
T3 construct: expressed as native untagged proteins; made in house; host or cells: E. coli BL21(DE3)
It counts as biochemical. Here is the method: (§2) Assays (200 μl final volume) were performed in PBS in triplicate using 96-well microtiter plates. Cephalothin was used as the substrate for p99 AmpC and CTX-M-15 (50 μM for p99 AmpC; 75 μM for CTX-M-15) and reactions were initiated by addition of enzyme (0.2 nM p99 AmpC; 3 nM CTX-M-15). The decrease in the absorbance at λ260 nm was recorded continuously on a BioTek Powerwave XS2 microplate reader. […] SHV-5 reactions were initiated with 40 nM enzyme, using cefotaxime (100 μM) as the substrate. […] For KPC-2, imipenem (75 μM) was used as the substrate, and reactions initiated with 3 nM enzyme. Reaction progress was monitored by measuring the reduction in absorbance at λ300 nm in continuous fashion. […] Time courses for reaction progress were fit to the following equation, using Prism 7.04 (GraphPad Software, LaJolla, USA) to obtain kobs:
(§3) Off-rates for Compound 2 with the various beta-lactamases were determined by jump dilution experiments, performed in triplicate. Enzyme and inhibitor were incubated at room temperature for 10 minutes. Enzyme:inhibitor complexes were then diluted 800-fold into reaction buffer (50 mM Hepes, pH 7.0, 0.1 mg/ml BSA), and 20 μL of the diluted reaction immediately added to 180 μl of 110 μM nitrocefin in a 96-well microtiter plate, and the absorbance at λ 486 nm measured continuously on a BioTek Powerwave XS2 microplate reader. The resulting progress curves were fit to a single exponential, from which koff was derived. Half-life was determined using:
(§4) To determine Ki, plots of the inhibitor concentration versus inverse the initial velocity were fit to a linear equation, and the observed Ki corrected for substrate concentration and affinity by: […]

The target in the next data set is T4, CTX-M-15 (Escherichia coli, UniProt Q9EXV5).
T4 construct: expressed as native untagged proteins; made in house; host or cells: E. coli BL21(DE3)
Format: biochemical. Here is the method: as §2, §3, §4

A further data set concerns the target T5, SHV-5 (Klebsiella pneumoniae, UniProt P0A3M1).
T5 construct: expressed as native untagged proteins; made in house; host or cells: E. coli BL21(DE3)
It counts as biochemical. As for the experimental part: as §2, §3, §4

Data set [6] in a line: Metabolic stability in liver S9. Format: in vitro ADME, cynomolgus monkey. The following applies: cynomolgus, liver S9; Monkey; test conc. 3 μM.
A short description of data set [7]: Metabolic stability in liver S9. Format: in vitro ADME. The following applies: liver S9; Human; test conc. 3 μM.
The subject of data set [8] is 21 beta-lactamase-producing Enterobacteriaceae strains. In words: Neutropenic mouse thigh infection model, dose ranging. Format: in vivo, mice.
Data set [9] can be described thus: Metabolic stability in intestinal S9. Format: in vitro ADME. The settings on record: intestinal S9; Human; test conc. 3 μM.
Data set [10] is described as follows: Single dose plasma pharmacokinetics (fasted and non-fasted). Format: in vivo, Beagle dogs. The following applies: male, Beagle, dog, iv, 5 mg/kg.
Data set [11] in a line: Single ascending dose pharmacokinetics, Solutol HS-15:Water (20:80). It counts as in vivo, Cynomolgus monkeys. The following applies: cynomolgus monkey, plasma, iv, 1 mg/kg. As for the experimental part: as §1
Data set [12] is described as follows: Metabolic stability in intestinal S9. The following applies: Sprague-Dawley, intestinal S9; Rat; test conc. 3 μM. It counts as in vitro ADME, Sprague-Dawley rat.
Data set [13] is described as follows: Metabolic stability in plasma. The following applies: Sprague-Dawley, Rat, test conc. 3 μM. It counts as in vitro ADME.
In data set [14] the test system is four beta-lactamase expressing Enterobacteriaceae (1 KPC, 1 p99, 1 CTX-M-15, and 1 OXA-48). Put plainly: Time-kill kinetic analyses. The following applies: Compound 2 fixed at 4 μg/mL, 24 hours. Format: cell-based. Here is the method:
Activity was determined against four beta-lactamase expressing Enterobacteriaceae (1 KPC, 1 p99, 1 CTX-M-15, and 1 OXA-48). […] Macrodilution tubes were incubated with shaking and bacterial amounts were quantified at 0, 2, 4, 6, 8, and 24 hours by limiting dilutions. Amoxicillin/clavulanic acid (2:1) was used as a comparator oral antibacterial.

The target in the next data set is T6, p99 AmpC (Enterobacter cloacae, UniProt P05364).
T6 construct: expressed as native untagged proteins; made in house; host or cells: E. coli BL21(DE3)
Format: biochemical.

Take `Nc1nc(/C(=C/CC(=O)O)C(=O)N[C@@H]2C(=O)N3C(C(=O)O)=CCS[C@H]23)cs1` [Ceftibuten, ceftibuten, reference compound]: in [1], the MIC50 (as a rule, an inhibitory concentration at the 50% level, which refers to growth in some studies and to a panel of isolates in others) was 16 µg/mL (≈ 39 µM); the MIC90 (in general, the lowest concentration that inhibits either 90% of growth or 90% of the strains tested, depending on the study) is ≥ 32 µg/mL. In data set [2] (KPC-expressing (n = 77)), the “Number of strains at MIC value 0.5 mg/L” value was 2, the “Number of strains at MIC value 1 mg/L” value stood at 2, the “Number of strains at MIC value 2 mg/L” value was found to be 4 and the “Number of strains at MIC value 4 mg/L” value turned out to be 7. For the same compound, in [2] (KPC-expressing (n = 77)), the “Number of strains at MIC value 8 mg/L” value was 13, the “Number of strains at MIC value 16 mg/L” value stood at 24, the “Number of strains at MIC value […]” value is 0 and the “Number of strains at MIC value ≤0.06 mg/L” value was 0. Moreover, the “Number of strains at MIC value ≥32 mg/L” value in [2] (KPC-expressing (n = 77)) is listed as 25. Further, the MIC90 in [2] (iv) is ≥ 32 µg/mL.

Consider `CCC(=O)N[C@H]1Cc2cccc(C(=O)O)c2OB1O` [Compound 2, (R)-2-hydroxy-3-propionamido-3,4-dihydro-2H-benzo[e][1,2]oxaborinine-8-carboxylic acid], for which the IC50 (usually the concentration at which inhibition is half-maximal) at VIM-2 was found to be 9040 nM; against NDM-1, 38100 nM. For the same compound, the AUC(0-inf) (commonly the area under the concentration-time curve extrapolated to infinity) in data set [3] worked out at 6700 ng·h/mL; in data set [10], 25500 ng·h/mL; in data set [11], 10000 ng·h/mL. Moreover, the Cmax (in general, the highest concentration seen after dosing) in [3] was found to be 23700 ng/mL; in [10], 22400 ng/mL; in data set [11], 26000 ng/mL. Besides, the half-life at 3 μM in data set [4], in [5], in data set [6], in data set [7], in data set [9] and in data set [12] was > 2 h each time. Further, the half-life (as a rule, the time in which the quantity being followed falls by half) at 3 μM in data set [13] was > 2 h. The Ki (usually the dissociation constant of the complex between target and ligand, obtained from inhibition or displacement) came to 110 nM at KPC-2, 10 nM at CTX-M-15 and 41 nM at SHV-5. Also, the “k−2” value is listed as 2.5 ± 0.1 10^−4 s^−1 on KPC-2, 4.5 ± 0.1 10^−4 s^−1 on CTX-M-15, 12.7 ± 0.07 10^−4 s^−1 at SHV-5 and 24 ± 0.5 10^−4 s^−1 on p99 AmpC. For the same compound, the t1/2 was determined as 0.767 ± 0.0333 h at KPC-2, 0.433 ± 0.01 h at CTX-M-15, 6.5 ± 0.04 min on SHV-5 and 5.0 ± 0.1 min at p99 AmpC. Also, in data set [8] (ceftibuten 300 mg q8h human-simulated regimen with Compound 2 q8h), the “rescue of ceftibuten activity” value is on record as “rescued ceftibuten activity in all 21 beta-lactamase-expressing strains”. Further, in data set [8] (ceftibuten 300 mg q8h human-simulated regimen, interquartile range 3.06-18.56), the “Compound 2 median exposure at which net bacterial stasis was achieved” value is 8.98 mg·h/L. The “rescue of ceftibuten to cidality in time-kill” value in [14] was “able to rescue ceftibuten to a cidal endpoint through 24 hours”.
